Like-named read-outs stand apart in the source and are kept apart here.
Legend:
[1] = tested on: LoVo; test: SRB cytotoxicity assay, LoVo; assay type: cell-based; settings: Homo sapiens
Method: (§1) Cells were treated on Days 1, 3, 5, and 7 with 5 μL of media, vehicle, or drug. Peloruside A was resuspended in 0.1% DMSO and added to wells to a final concentration of 0.01, 0.1, 1, 10 or 100 nM. Taxol® (Sigma-Aldrich) was resuspended in 0.1% ethanol and added to cells to a final concentration of 0.1, 1, 10, 100, or 1000 nM.
(§2) The amount of surviving cells was measured using the sulforhodamine B (SRB) assay as previously described (Skehan et al., New colorimetric cytotoxicity assay for anticancer-drug screening. J. Natl. Cancer Inst., 1990. 82(13): p. 1107-12). Cells were fixed on Days 5, 7, and 9 (representing 4, 6, and 8 days of exposure to drug or control, respectively) with 50% (w/v) trichloroacetic acid for 1 hour at 4° C., rinsed thoroughly with water, and dried overnight. The dried cells were stained with 4% sulforhodamine B in 1% acetic acid, rinsed thoroughly and dried overnight. The bound dye was resuspended in 10 mM Tris and the absorbance was read at 492 nm. Percent growth inhibition (GI) was calculated as follows: %GI=(1−(absorbance sample/absorbance vehicle))×100. The absorbance value for each drug concentration and control represents the average of 6 replicates. The %GI was plotted against the log[drug] to generate the growth curves. The concentration of drug required to inhibit growth by 50% (GI50) was calculated for each time point.

[2] = tested on: SK-MEL-28; test: SRB cytotoxicity assay, SK-MEL-28; assay type: cell-based; settings: Homo sapiens
Method: as §1, §2

[3] = tested on: Tubulin, purified from bovine brains; test: Tubulin polymerization in vitro; assay type: biochemical
Method: Tubulin, purified from bovine brains and prepared in PEM-buffer (80 mM PIPES, 0.5 mM MgCl2, 1 mM EGTA, pH 6.9) was thawed under vacuum on ice. Tubulin was incubated at 37° C. until almost melted and resuspended to a final concentration of 2 mg/ml and placed on ice. Peloruside A or Taxol® was added into transparent 96-well plates (Coming Incorp. Costar) and placed on ice. GTP (Sigma) was added to a final concentration of 1 mM. The 96 well plate was warmed to 37° C. and 120 μl of tubulin solution was added into each well. The absorbance of the reaction at 340 nm over time (each 40-50 sec.) was measured on the spectrophotometer TECAN SPECTRAFluor Plus. Peloruside A or Taxol® was added to the tubulin at a final concentration of 5 or 10 μM.

[4] = tested on: 1A9 cells; test: Cell Titer-Glo cell viability, parent 1A9 cells; assay type: cell-based, human; settings: parental 1A9 cells, 48 hours
Method: These cell lines have specific amino acid mutations in tubulin that prevent Taxol®-binding. […] Synthetic (+)-Peloruside A was used for the present example.
1A9, ptx10 and ptx22 cells were plated in 96-well plates to approximately 50% confluency. On the next day, Taxol® or Peloruside A was added to each well and incubated for 48 hours. A final concentration of 1, 2, 3, 4, 5, 8, 10, 20, 30, 50, 100, 300, 500, or 1000 nM of Taxol® was used. A final concentration of 10, 20, 30, 40, 50 or 70 nM of Peloruside A was used. Cell viability was measured using the Cell Titer-Glo Luminescent Cell Viability Assay (Promega). FIGS. 80-82 show bar graphs of cell viability at various concentrations of Peloruside A and Taxol®.

[5] = tested on: various cultured human tumor cell lines; test: Proliferation of a panel of tumor cell lines; assay type: cell-based; settings: panel: colon, pancreas, melanoma, ovarian, renal, liver, lung, breast, prostate
Method: as §1, §2

Structure (SMILES) | GI50 ([1]; 96 h) | GI50 ([1]; 144 h) | GI50 ([1]; 192 h) | GI50 ([2]; SK-MEL-28, 96 h) | GI50 ([2]; SK-MEL-28, 144 h) | GI50 ([2]; SK-MEL-28, 192 h) | polymerization of tubulin dimers into microtubule polymers (microtubule-stabilizing activity) [3] | tubulin stabilization activity ([3]; 5 or 10 μM, 37° C., absorbance at 340 nm) | inhibition of cell growth (antimitotic activity) [4] | inhibition of proliferation of tumor cell lines [5] | inhibition of proliferation of tumor cell lines ([5]; listed as ent-40) | GI50 ([1]; 96 h, Colon, 4 Days, read-out: GI50) | GI50 ([1]; 144 h, Colon, 6 Days, read-out: GI50) | GI50 ([1]; 192 h, Colon, 8 Days, read-out: GI50) | GI50 ([2]; 96 h, SK-MEL-28, Melanoma, 4 Days, read-out: GI50) | GI50 ([2]; 144 h, SK-MEL-28, Melanoma, 6 Days, read-out: GI50) | GI50 ([2]; 192 h, SK-MEL-28, Melanoma, 8 Days, read-out: GI50)
CC[C@H](/C=C(/C)C1C[C@@H](OC)CC(O)C(C)(C)C2(O)OC(C[C@@H](OC)C2O)C[C@@H](OC)[C@H](O)C(=O)O1)CO (single isomer, unassigned; (+)) [Peloruside A, (+)-Peloruside A] | 11.8 nM | 7.34 nM | 6.14 nM | 23.3 nM | 7.29 nM | 2.07 nM | did polymerize tubulin dimers into microtubule polymers | potent tubulin stabilization activity | potent antimitotic activity | inhibited proliferation | did inhibit the growth |  |  |  |  |  | 
CC(=O)O[C@H]1C(=O)[C@@]2(C)[C@H]([C@H](OC(=O)c3ccccc3)[C@]3(O)C[C@H](OC(=O)[C@H](O)[C@@H](NC(=O)c4ccccc4)c4ccccc4)C(C)=C1C3(C)C)[C@]1(OC(C)=O)CO[C@@H]1C[C@@H]2O [Paclitaxel, paclitaxel, reference compound] |  |  |  |  |  |  |  |  |  |  |  | 1.91 nM | 1.95 nM | 3.92 nM | 0.76 nM | 0.2 nM | 0.01 nM
